For one data set, the system named is mice. Conditions: limited sequencing of target genes; cited from earlier work.
Data set [1] concerns Umbilical cord blood cells that express the stem/progenitor marker CD34. The experiment in a line: Direct measurement of environmental mutagenicity (DMEM): exposed single cells, PTA and single-cell sequencing. The conditions noted are these: for enrichment of variants in DNase I hypersensitive (DH) sites: ENU-exposed CD34+ cells vs Roadmap Epigenomics DH sites (FIG. 12D, 12E). The data set is classed as cell-based, human. From the text: PTA was used to conduct a novel mutagenicity assay that provides a framework for performing high-resolution, genome wide human toxicogenomics studies. Previous studies such as the Ames test, relies on bacterial genetics to make measurements that are assumed to be representative of human cells while only providing limited information on the mutation number and patterns induced in each exposed cell. To overcome these limitations, a human mutagenesis system “direct measurement of environmental mutagenicity (DMEM)” was developed, wherein single human cells was exposed to an environmental compound, isolated as single cells, and subjected to single-cell sequencing to identify the new mutations induced in each cell.
Umbilical cord blood cells that express the stem/progenitor marker CD34 were exposed to increasing concentrations of the direct mutagen N-ethyl-N-nitrosourea (ENU).
ENU (CAS 759-73-9) and D-mannitol (CAS 69-65-8) were put into solution at their maximal solubility. Fresh anticoagulant-treated umbilical cord blood (CB) was obtained from St. Louis Cord Blood Bank. CB was diluted 1:2 with PBS and mononuclear cells (MNCs) were isolated by density gradient centrifugation on Ficoll-Paque Plus according to manufacturer's instructions. CB MNCs expressing CD34 were then immunomagnetically selected using the human CD34 microbead kit and magnetic cell sorting (MACS) system as per the manufacturer. Cell count and viability were assessed using the Luna FL cell counter. CB CD34+ cells were seeded at a density of 2.5×10^4 cells/mL in StemSpan SFEM supplemented with 1×CD34+ Expansion supplement, 100 units/mL of penicillin, and 100 ug/mL of streptomycin where they expanded for 96 hours before proceeding to mutagen exposure.
Expanded cord blood CD34+ cells were cultured in StemSpan SFEM supplemented with 1×CD34+ Expansion Supplement, 100 units/mL of penicillin, and 100 ug/mL of streptomycin. The cells were exposed to ENU at concentrations of 8.54, 85.4, and 854 uM, D-mannitol at 1152.8, and 11528 uM, or 0.9% sodium chloride (vehicle control) for 40 hours. Single-cell suspensions from drug-treated cells and vehicle control samples were harvested and stained for viability as described above. Single cell sorts were carried out as described above. PTA was performed and libraries were prepared using a simplified and improved protocol as per the general methods of the methods described herein, and Example 2.
Data acquired from cells in the DMEM experiments were trimmed using Trimmomatic, aligned to GRCh38 using BWA, and further processed using GATK 4.0.1 best practices without deviation from the recommended parameters. Genotyping was performed using HaplotypeCaller where joint genotypes were again filtered using standard parameters. […] The trinucleotide context of each SNV was determined by extracting the surrounding bases from the reference genome using bedtools. Mutation counts and context were visualized using ggplot2 and heatmap2 in R.
To determine whether mutations were enriched in DNase I hypersensitivity sites (DHS) in CD34+ cells, the proportion of SNVs in each sample that overlap with DHS sites from 10 CD34+ primary cell datasets produced by the Roadmap Epigenomics Project were calculated. DHS sites were extended by 2 nucleosomes, or 340 bases in either direction. Each DHS dataset was paired with a single cell sample where we determined the proportion of the human genome with at least 10× coverage in that cell which overlapped with a DHS, which was compared to the proportion of SNVs that were found within the covered DHS sites.

Data set [2] has as its system leukemia cells; clone harboring an activating KRAS mutation. Kind of data set: Leukemia cells in culture exposed to increasing concentrations of standard ALL chemotherapy drugs, bulk sequencing of clones. The conditions noted are these: for sensitivity of the clone harboring an activating KRAS mutation: pediatric ALL sample in culture, bulk sequencing (FIG. 7). The class given is cell-based, human. The text has this: Single-cell exome sequencing of individual leukemia cells harboring an ETV6-RUNX1 translocation has been performed, measuring approximately 200 coding mutations per cell, only 25 of which have been present in enough cells to be detected with standard bulk sequencing in that patient. The mutation load per cell has then been incorporated with other known features of this type of leukemia, such as the replication-associated mutation rate (1 coding mutation/300 cell divisions), the time from initiation to diagnosis (4.2 years), and the population size at the time of diagnosis (100 billion cells) to create an in silico simulation of the development of the disease. It has been unexpectedly discovered that even in what has been thought to be a genetically simple cancer such as pediatric ALL, there are an estimated 330 million clones with distinct coding mutation profiles at the time of diagnosis in that patient. […] Accordingly, methods are provided for enhancing the sensitivity of detection so that clones that make up at least 0.01% (1:10,000) of the cells (box B) can be detected, as this is the stratum in which most resistant disease that causes relapse is hypothesized to reside.
Given such a massive population genetic diversity, it has been hypothesized that there are clones that are more resistant to treatment within a given patient. To test that hypothesis, the sample is placed in culture and the leukemia cells are exposed to increasing concentrations of standard ALL chemotherapy drugs. […] This approach also employed bulk sequencing of the treated samples. The use of single-cell DNA sequencing in some instances allows a determination of the diversity and clonotypes of the expanding populations.

Data on 4 compounds can be found in US11905553B2, “Method for nucleic acid amplification” (ST. JUDE CHILDREN'S RESEARCH HOSPITAL, INC., priority 2018, dated 2024).

Entries after “also recorded” stand apart in the source; their conditions may differ.

Take `CCN(N=O)C(N)=O` [ENU, N-ethyl-N-nitrosourea]: in the data set with mice, the “preference of base changes” value is “preference for T to A (A to T), T to C (A to G), and C to T (G to A) changes”. The “mutation number of each cell” value in data set [1] (ENU 8.54, 85.4 and 854 uM, 40 hours, cord blood CD34+ cells (FIG. 12A)) is recorded as “dose-dependent increase in mutation number of each cell”. Also, the “type of base changes induced” value in data set [1] (ENU-exposed CD34+ cells (FIG. 12B)) was “the most common mutations are T to A (A to T), T to C (A to G), and C to T (G to A); also recorded: C to G (G to C) transversion appears to be rare”. Besides, the “trinucleotide context of the SNVs” value in data set [1] (ENU-exposed CD34+ cells (FIG. 12C)) is on record as “cytosine mutagenesis appears to be rare when cytosine is followed by guanine; also recorded: most thymine variants occur where adenine is present before thymine”. In addition, the “genomic feature annotation of the variants relative to the genome” value in data set [1] (ENU-exposed CD34+ cells (FIG. 12F)) is given as “not significantly different; also recorded: No specific enrichment was seen in specific annotations”. The entries for the “enrichment of variants in DNase I hypersensitive (DH) sites” value in data set [1] and in data set [1] (listed as N-ethyl-N-nitrosourea) were “no enrichment of cytosine variants in DNase I hypersensitivity sites was observed; also recorded: No significant enrichment in variant locations at DH sites was identified” and “No significant enrichment of cytosine variants was observed”, respectively.
Turning to `COc1cccc2c1C(=O)c1c(O)c3c(c(O)c1C2=O)C[C@@](O)(C(C)=O)C[C@@H]3O[C@H]1C[C@H](N)[C@H](O)[C@H](C)O1` [daunorubicin], the “sensitivity of the clone harboring an activating KRAS mutation” value in data set [2] is “more sensitive; also recorded: killed”.
On the same count and under the same terms, with `C[C@]12C=CC(=O)C=C1CC[C@@H]1[C@@H]2[C@@H](O)C[C@@]2(C)[C@H]1CC[C@]2(O)C(=O)CO` [prednisolone] the entry was “more sensitive; also recorded: killed”.
Consider asparaginase, for which, in data set [2] (lowest dose of asparaginase, pediatric ALL sample in culture (FIG. 7)), the “behaviour of the clone harboring an activating KRAS mutation” value is on record as “continued to expand”.
